Measured values published in patent US20230364277A1, “E-SELECTIN TARGETING AGENTS” (GLYCOMIMETICS, INC., priority 2020, published 2023).

Test system: E-selectin expression on HUVEC
Assay: Induction of E-selectin expression on HUVEC by TNFα (flow cytometry, anti-E-selectin antibody)
Format: cell-based, human
Details: with TNFα stimulation
Method: Subsequent studies were performed to investigate the ability of liposomes containing Compound 3 to recognize and bind to cells under conditions where E-selectin is expressed. For these liposomes with and without Compound 3 were prepared with a fluorescent phospholipid membrane marker (Composition 4 and Composition 3, respectively) allowing for detection by flow cytometry. Liposomes were incubated for 60 min at 37° C. with cultures of human umbilical vein endothelial cells (HUVEC) pretreated in media deficient in TNFα or supplemented with TNFα to induce E-selectin expression. Association of fluorescein labeled liposomes with cell preparations by flow cytometry was then determined.
The flow cytometry-based assay used liposomes containing 0% or 5% Compound 3 (L4 and L5, respectively). Initial studies defined that only TNFα-stimulated HUVEC but not unstimulated HUVEC express E-selectin.

## TNFα
  HUVEC express E-selectin: 88.696%
